Data as given in PMC10016038, “Enhanced Endosomal Signaling and Desensitization of GLP-1R vs GIPR in Pancreatic Beta Cells” (Endocrinology, 2023).
Entries after “also recorded” stand apart in the source; their conditions may differ.

Columns and labels:
Type in all cases: cell-based
[1] = tested on: cAMP response in mouse islet beta cells; experiment: cAMP FRET assay, Pdx1-CreERT/CAMPER islets; conditions: 100 nM, n = 4
Experimental: Nondiabetic mice of both sexes were used for islet isolation. Briefly, pancreata were infused via the common bile duct with RPMI-1640 medium containing 1 mg/mL collagenase from Clostridium histolyticum (Nordmark Biochemicals), dissected, and incubated in a water bath at 37 °C for 10 minutes. Islets were subsequently washed and purified using a Histopaque gradient (Histopaque-1119, 11191, Sigma-Aldrich, and Histopaque-1083, 10831, Sigma-Aldrich). Isolated islets were allowed to recover overnight at 37 °C in 5% CO2 in RPMI-1640 supplemented with 10% FBS and 1% penicillin/streptomycin. […]
CAMPER reporter mice ([30]), with conditional expression of the cAMP fluorescence resonance energy transfer (FRET) biosensor ^TEPAC^VV ([31]), were purchased from Jackson Laboratory (Stock No: 032205) and crossed with Pdx1-Cre^ERT mice (in house) to generate mice with inducible ^TEPAC^VV expression from pancreatic beta cells, used to isolate islets for ex vivo cAMP FRET assays. […] Raw intensity traces for YFP and CFP fluorescence were extracted from whole islet ROIs using Fiji and YFP/CFP ratios calculated for each ROI and time point. Responses were plotted relative to the average fluorescence intensity per islet during the 6 mM glucose baseline period, before agonist addition. […]

GIPR-NanoLuc = experiment: Rab5-Venus bystander NanoBRET (early endosome), GIPR; conditions: n = 5
Description: GLP-1R-NanoLuc was generated in house by polymerase chain reaction (PCR) cloning of the NanoLuciferase sequence from pcDNA3.1-ccdB-NanoLuc (a gift from Prof. Mikko Taipale; Addgene plasmid # 87067) onto the C-terminus end of the SNAP-GLP-1R vector (CisBio), followed by site-directed mutagenesis of the GLP-1R stop codon. GIPR-NanoLuc was subsequently cloned in house by exchanging the GLP-1R for the GIPR in the GLP-1R-NanoLuc construct. KRAS- and Rab5-Venus plasmids were a gift from Prof. Kevin Pfleger, University of Western Australia. The INS-1 832/3 GLP-1R KO and GIPR KO cells were seeded in 12-well plates and co-transfected with 0.2 µg KRAS-Venus and 0.1 µg GLP-1R- or GIPR-NanoLuc, respectively, or 0.5 µg Rab5-Venus and 0.1 µg GLP-1R- or GIPR-NanoLuc, respectively.
All NanoBiT and NanoBRET readings were obtained in a Flexstation 3 plate reader. Briefly, 24 hours after transfection, cells were detached, resuspended in NanoGlo Live Cell Reagent (Promega) with furimazine (1:20 dilution) and seeded into white 96-well half-area plates. […] Readings were normalized to well baseline and then to average vehicle-induced signal to establish the agonist-induced effect. AUCs from response curves were calculated for each agonist concentration and fitted to four-parameter curves using Prism 9 (GraphPad).
Figure 2. Endosomal vs plasma membrane localization of GLP-1R compared with GIPR in beta cells. […]

SNAP-tagged human GIPR [2] = experiment: RICS receptor diffusion / clustering, SNAP-GIPR; conditions: 5 minutes, 100 nM; n = 4
SNAP-tagged human GIPR [3] = experiment: DERET internalization assay, INS-1 832/3 SNAP-GIPR cells; conditions: non-cognate agonist GLP-1, or both agonists combined
Experimental: The diffusion-enhanced resonance energy transfer (DERET) assay was performed as previously described ([21]). The INS-1 832/3 SNAP-GLP-1R or SNAP-GIPR cells were labeled in suspension with Lumi4-Tb (40 nM) for 30 minutes in complete media. After washing, cells were resuspended in HBSS containing 24 µM fluorescein and dispensed into 96-well white plates. A baseline read was serially recorded over 5 minutes using a Flexstation 3 instrument at 37 °C in time-resolved fluorescence resonance energy transfer (TR-FRET) mode using the following settings: λex 340 nm, λem 520 and 620 nm, auto-cutoff, delay 400 µs, integration time 1500 µs. Ligands were then added, after which signal was repeatedly recorded for 30 minutes. Fluorescence signals were expressed ratiometrically after first subtracting signal from wells containing 24 µM fluorescein but no cells. Internalization was quantified as area under the curve (AUC) relative to individual well baseline.
Note that surface expression levels of SNAP-GLP-1R and SNAP-GIPR were similar within these 2 cell models (Supplemental Fig. 1A) ([32]).

| Substance | cAMP response, GIP compared with GLP-1, mouse islet beta cells [1] | Agonist-mediated redistribution of GIPR to Rab5-positive early endosomes (GIPR-NanoLuc) | GIPR diffusion (RICS) upon stimulation (SNAP-tagged human GIPR [2]) | GIPR internalization (SNAP-tagged human GIPR [3]) |
| --- | --- | --- | --- | --- |
| GIP(1-42) | a tendency replicated in primary mouse islet beta cells; also recorded: nonsignificant tendency toward increased cAMP | virtually absent | marked slowing of diffusion |  |
| GLP-1(7-36)NH2 |  |  |  | negligible |
